Structures can show the parent of a compound that is named as a salt.
Columns and labels:
[1] = tested on: in vitro placenta device (coculture of Bewo trophoblasts and HUVEC); test: Maternal-placental size exclusion (permeability index) in the in vitro placenta device; type: in vitro ADME, human; conditions: injected into the maternal vascular channel at 0.1 μL/min for 1 hour; FIG. 9B
Experimental: Again, devices can be placed in the incubator.
In another example, one embodiment of the present invention was used to evaluate maternal-placental size exclusion, where a fluorescein sodium salt (FSS) solution was injected into the maternal vascular channel at 0.1 μL/min for 1 hour. […] PI was expected to decrease as a function of compound molecular weight.

[2] = tested on: intervillous space - trophoblast barrier; test: Morphological effects of toxic exposure in the in vitro placenta device; type: cell-based; conditions: injected into the maternal channel at 3 μL/min for 4 min, incubated at 37° C. for 15 min; FIG. 10
From the text: In some embodiments, the in vitro placental model device can be used for studying toxicity of test agents to the placenta. Certain compounds not only induce fetal toxicity upon crossing the placental barrier, but also disrupt the barrier itself. The microfluidic placental barrier model can be used to study response to toxic exposure of test agents. The impact to barrier function can be assessed through permeability comparisons and toxicity (e.g., cytotoxicity, etc.) can be assessed off chip by various methods (e.g., cell lysate luminescence assay, genomic analysis, etc.).
For example, an in vitro placenta device was exposed to trypan blue by injection into the maternal channel at 3 μL/min for 4 min and then incubated at 37° C. for 15 min, similar to protocols in literature^7,8. […] White arrows show barrier degradation, and dark arrows show apoptosis following trypan blue exposure.

[3] = tested on: trophoblast channel; test: Cytotoxicity by adenylate kinase release (luminescence); type: cell-based; conditions: samples from the trophoblast channel; FIG. 11
Experimental: Following exposure, FSS was injected into the maternal channel and permeability assayed. Permeability in the devices was 10-fold higher in trypan blue treated devices compared to controls. An additional assay was performed to determine cytotoxicity as it relates to the release of adenylate kinase. A positive control (100% death by lysis buffer) and a negative control (media only) were included for comparison. Samples were taken from the trophoblast channel and placed in a low volume, white walled […] plate for luminescence analysis using a plate reader. […] The increase in AK release in arbitrary luminescence units compares the toxic exposure of trypan blue to positive and negative controls.

Structure (SMILES) | increase in average PI compared to 4 kD TRITC-dextran [1] [fold] | morphological effects of exposure [2] | increase in adenylate kinase release [3] [fold]
O=C1OC2(c3ccc(O)cc3Oc3cc(O)ccc32)c2ccccc21 [FSS, fluorescein sodium salt] | ~2 | – | –
Cc1cc(-c2ccc(/N=N/c3c(S(=O)(=O)O)cc4cc(S(=O)(=O)O)cc(N)c4c3O)c(C)c2)ccc1/N=N/c1c(S(=O)(=O)O)cc2cc(S(=O)(=O)O)cc(N)c2c1O [trypan blue] | – | barrier degradation (e.g., cell death and detachment) and apoptosis | 1.5

Source: patent publication US12640054B2, “Computational in silico model for placental barrier” (CFD Research Corporation, priority 2022, dated 2026)
